The IC50 is the concentration at which inhibition is half-maximal. High values mean a need for much substance, low ones inhibition by little substance. A word on the Ki: it is a measure of affinity in units of concentration, obtained from inhibition or displacement.

The values below come from ChEMBL document CHEMBL1130802, “Design and synthesis of a new type of non steroidal human aromatase inhibitors” (Bioorg Med Chem Lett, 1998).

The target of test [1] is T1, Aromatase (Homo sapiens, UniProt P11511).
T1 sequence (P11511 whole entry): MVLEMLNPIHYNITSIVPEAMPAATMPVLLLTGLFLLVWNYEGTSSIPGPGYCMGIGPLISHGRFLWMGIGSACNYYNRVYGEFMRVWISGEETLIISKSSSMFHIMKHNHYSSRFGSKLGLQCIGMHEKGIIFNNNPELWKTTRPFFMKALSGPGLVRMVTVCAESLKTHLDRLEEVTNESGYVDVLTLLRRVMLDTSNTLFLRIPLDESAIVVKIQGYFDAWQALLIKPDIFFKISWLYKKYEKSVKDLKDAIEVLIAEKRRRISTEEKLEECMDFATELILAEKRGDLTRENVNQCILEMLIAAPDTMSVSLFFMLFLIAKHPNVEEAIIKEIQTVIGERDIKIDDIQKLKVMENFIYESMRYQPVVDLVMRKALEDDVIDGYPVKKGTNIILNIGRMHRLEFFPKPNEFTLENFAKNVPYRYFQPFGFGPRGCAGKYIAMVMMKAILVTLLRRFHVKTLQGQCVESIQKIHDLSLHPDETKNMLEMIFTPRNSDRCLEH
Description: Inhibition of human aromatase cytochrome P450 19A1 activity

Test [2] deals with T1, Aromatase. The source holds these as a separate data set.
Description: Inhibition constant for human aromatase cytochrome P450 19A1 activity

As to `O=C1/C(=C\c2ccncc2)C(c2ccccc2)c2ccccc21` (configuration not stated), in test [1], the IC50 is 800 nM. The molecule also had a Ki in test [2] of 10.3 nM.
